The record followed here is ChEMBL document CHEMBL3045439, “Isoforms of the heteropteran Nezara viridula ecdysone receptor: protein characterisation, RH5992 insecticide binding and homology modelling” (Pest Manag Sci, 2011).

Some results are limits rather than exact numbers.

Common to all, as to type: protein-complex assay
In assay [1] the target is T1, Ecdysone receptor (Spodoptera frugiperda, UniProt Q8MWR1+Q8MWR2).
T1 sequence (Q8MWR2 whole entry): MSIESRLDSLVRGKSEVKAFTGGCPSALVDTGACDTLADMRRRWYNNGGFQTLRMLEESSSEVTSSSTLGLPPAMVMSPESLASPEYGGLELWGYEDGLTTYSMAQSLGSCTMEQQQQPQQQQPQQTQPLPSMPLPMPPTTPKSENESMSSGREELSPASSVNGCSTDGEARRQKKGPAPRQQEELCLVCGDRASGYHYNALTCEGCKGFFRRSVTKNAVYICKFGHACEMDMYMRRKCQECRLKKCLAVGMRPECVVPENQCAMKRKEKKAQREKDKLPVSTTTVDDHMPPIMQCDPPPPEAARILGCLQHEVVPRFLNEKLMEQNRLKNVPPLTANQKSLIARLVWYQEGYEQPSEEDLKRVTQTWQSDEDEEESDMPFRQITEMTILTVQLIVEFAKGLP
T1 sequence (Q8MWR1 whole entry): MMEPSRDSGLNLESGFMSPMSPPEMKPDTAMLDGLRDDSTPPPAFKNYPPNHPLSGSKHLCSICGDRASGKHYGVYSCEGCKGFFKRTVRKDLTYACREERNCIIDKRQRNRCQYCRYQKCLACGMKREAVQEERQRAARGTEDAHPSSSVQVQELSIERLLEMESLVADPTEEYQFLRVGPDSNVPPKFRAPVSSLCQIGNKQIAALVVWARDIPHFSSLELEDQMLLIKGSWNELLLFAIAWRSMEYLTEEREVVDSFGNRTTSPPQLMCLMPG
Description: Binding affinity to Spodoptera frugiperda (fall armyworm) EcR.

Assay [2] concerns the target T2, Ecdysone receptor (Chilo suppressalis, UniProt Q8I1M8+Q8MYA6).
T2 sequence (Q8MYA6 whole entry): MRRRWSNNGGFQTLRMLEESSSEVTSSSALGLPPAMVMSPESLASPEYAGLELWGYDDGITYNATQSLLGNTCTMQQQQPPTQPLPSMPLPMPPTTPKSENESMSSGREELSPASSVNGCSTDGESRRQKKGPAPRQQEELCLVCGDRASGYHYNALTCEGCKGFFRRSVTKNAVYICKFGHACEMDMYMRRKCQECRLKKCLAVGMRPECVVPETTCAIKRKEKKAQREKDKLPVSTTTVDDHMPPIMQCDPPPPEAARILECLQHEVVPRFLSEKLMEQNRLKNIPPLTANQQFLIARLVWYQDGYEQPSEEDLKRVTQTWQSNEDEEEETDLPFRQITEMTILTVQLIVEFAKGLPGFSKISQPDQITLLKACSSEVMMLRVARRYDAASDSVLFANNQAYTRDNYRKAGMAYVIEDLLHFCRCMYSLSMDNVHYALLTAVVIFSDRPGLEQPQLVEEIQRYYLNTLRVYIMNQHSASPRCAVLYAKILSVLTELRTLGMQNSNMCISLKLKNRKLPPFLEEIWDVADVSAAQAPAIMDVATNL
T2 sequence (Q8I1M8 whole entry): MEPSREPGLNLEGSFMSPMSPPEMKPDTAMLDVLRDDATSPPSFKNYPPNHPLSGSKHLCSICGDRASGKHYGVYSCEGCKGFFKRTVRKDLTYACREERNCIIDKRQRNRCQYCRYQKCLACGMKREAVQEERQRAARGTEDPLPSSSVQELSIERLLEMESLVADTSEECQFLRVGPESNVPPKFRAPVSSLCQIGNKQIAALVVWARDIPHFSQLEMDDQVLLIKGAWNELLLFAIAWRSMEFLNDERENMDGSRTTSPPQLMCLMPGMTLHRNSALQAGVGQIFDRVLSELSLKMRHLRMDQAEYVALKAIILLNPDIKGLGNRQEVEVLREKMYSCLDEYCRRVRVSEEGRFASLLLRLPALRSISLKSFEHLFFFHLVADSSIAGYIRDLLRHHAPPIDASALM
Description: Binding affinity to Chilo suppressalis (rice stem borer) EcR.

Assay [3] has as its target T3, Ecdysone receptor (Nezara viridula, UniProt E5L6Y0+E5L6Y1).
T3 sequence (E5L6Y1 whole entry): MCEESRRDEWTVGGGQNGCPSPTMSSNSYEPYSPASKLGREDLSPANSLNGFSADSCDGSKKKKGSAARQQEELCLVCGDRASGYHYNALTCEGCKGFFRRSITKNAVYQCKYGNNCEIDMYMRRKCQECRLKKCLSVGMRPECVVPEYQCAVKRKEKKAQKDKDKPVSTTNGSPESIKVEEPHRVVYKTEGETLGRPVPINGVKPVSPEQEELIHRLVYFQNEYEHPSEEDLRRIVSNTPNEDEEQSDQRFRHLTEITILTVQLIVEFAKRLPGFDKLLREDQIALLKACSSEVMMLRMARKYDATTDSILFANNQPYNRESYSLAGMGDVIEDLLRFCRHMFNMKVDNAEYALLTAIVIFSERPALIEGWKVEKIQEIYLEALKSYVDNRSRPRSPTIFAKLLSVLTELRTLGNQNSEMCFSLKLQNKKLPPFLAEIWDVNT
T3 sequence (E5L6Y0 whole entry): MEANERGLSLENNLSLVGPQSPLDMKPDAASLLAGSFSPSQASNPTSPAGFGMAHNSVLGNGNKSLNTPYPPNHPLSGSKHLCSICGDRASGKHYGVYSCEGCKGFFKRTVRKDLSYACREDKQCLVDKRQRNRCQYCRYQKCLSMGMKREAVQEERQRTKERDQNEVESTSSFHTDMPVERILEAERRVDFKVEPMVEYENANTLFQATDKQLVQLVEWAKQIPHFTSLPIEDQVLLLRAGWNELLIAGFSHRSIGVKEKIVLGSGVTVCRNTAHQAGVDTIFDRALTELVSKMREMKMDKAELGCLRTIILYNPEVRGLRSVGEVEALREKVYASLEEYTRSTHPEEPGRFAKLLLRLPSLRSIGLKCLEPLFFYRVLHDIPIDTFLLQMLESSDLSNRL
Description: Binding affinity to Nezara viridula EcR11.

The target of assay [4] is Ecdysone receptor (Bemisia tabaci, UniProt A3EZJ4+A3EZJ5). Description: Binding affinity to Bemisia tabaci (sweet potato whitefly) ecdysone receptor (EcR).
Chain of Ecdysone receptor (Bemisia tabaci, UniProt A3EZJ4+A3EZJ5) (A3EZJ4 1-297): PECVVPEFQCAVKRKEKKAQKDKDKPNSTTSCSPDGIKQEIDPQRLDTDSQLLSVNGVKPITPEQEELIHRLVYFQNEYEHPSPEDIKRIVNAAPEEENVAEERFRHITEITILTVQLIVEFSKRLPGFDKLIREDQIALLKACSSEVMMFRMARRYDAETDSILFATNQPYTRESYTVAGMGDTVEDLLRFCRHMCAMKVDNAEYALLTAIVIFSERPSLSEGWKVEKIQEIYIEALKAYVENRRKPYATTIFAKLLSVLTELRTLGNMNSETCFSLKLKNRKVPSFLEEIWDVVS
Chain of Ecdysone receptor (Bemisia tabaci, UniProt A3EZJ4+A3EZJ5) (A3EZJ5 1-251): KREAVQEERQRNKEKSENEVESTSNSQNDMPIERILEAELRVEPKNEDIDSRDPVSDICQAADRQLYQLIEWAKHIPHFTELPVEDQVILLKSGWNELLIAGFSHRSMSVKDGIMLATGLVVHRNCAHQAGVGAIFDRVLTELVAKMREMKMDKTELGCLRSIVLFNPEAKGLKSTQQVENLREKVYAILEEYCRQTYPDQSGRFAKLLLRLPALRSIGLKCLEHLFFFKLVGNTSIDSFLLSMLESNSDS

As for `CC(C)(O)CC[C@@H](O)[C@](C)(O)[C@H]1CC[C@@]2(O)C3=CC(=O)[C@@H]4C[C@@H](O)[C@@H](O)C[C@]4(C)[C@H]3CC[C@]12C` [20-HYDROXYECDYSONE], on Ecdysone receptor [1], the IC50 was 166 nM.
For `CCc1ccc(C(=O)NN(C(=O)c2cc(C)cc(C)c2)C(C)(C)C)cc1` [TEBUFENOZIDE], the results for the Ki on Ecdysone receptor [2], at Ecdysone receptor [3] and at Ecdysone receptor [4] were 1.26 nM, 25100 nM and more than 501000 nM, respectively.

For orientation: IC50 means the concentration that inhibits the measured activity by half. Lower therefore signals inhibition by little substance. Usually Ki stands for the dissociation constant of the complex between target and ligand, obtained from inhibition or displacement. Low readings indicate higher affinity, high ones lower affinity.
